This series is described as follows: Human HepG2 cell viability assay in 384 well format. The series is classed as toxicity, cell-based. Conditions: HepG2 cells, read-out: Inhibition. Details: dose 125 nL, time 70.5 hour; concentration not given beside the values.
Take `CCN1C[C@H]2CCN(C(=O)Cc3cccc(OC)c3)CC[C@H]2S1(=O)=O`: the cytotoxicity at 70.5 h is -8.13%.

In the case of `CCN(CC)CCNC(=O)c1ccn(COc2cc(C)cc(C)c2)n1`, the cytotoxicity at 70.5 h is -3.13%.

Regarding `CCCN1CCC(CNC(=O)C2(c3cc(C)cc(C)c3)CCC2)C1` (centres undefined), the cytotoxicity at 70.5 h came to 16.9%.

For `Cc1c(NC(=O)c2ccc(Br)cc2)c(C(=O)N(C)C)nn1C`, the cytotoxicity at 70.5 h is -6.74%.

Consider `Cc1c(C(=O)N(C)C)cccc1N(C)S(C)(=O)=O`, for which the cytotoxicity at 70.5 h was determined as 0.872%.

For the compound `CCN(C(=O)CN1CCn2c(C)nnc2C1)C1=CCCCC1`, the cytotoxicity at 70.5 h was -17%.

For the compound `Cn1cc(N2CC3(CCN(Cc4nccn4C)C3)CC2=O)cn1` (centres undefined), the cytotoxicity at 70.5 h was -12.4%.

Regarding `O=C(COc1cccc2c1CCC2=O)NCC(F)(F)F`, the cytotoxicity at 70.5 h is -2.4%.

Turning to `CN1CCO[C@@H]2CN(C(=O)Cc3cccs3)CC[C@@H]2C1`, the cytotoxicity at 70.5 h is -2.05%.

Turning to `CCN(C(=O)c1cc(C)oc1C)C1CC1`, the cytotoxicity at 70.5 h is -4.05%.

For `N[C@@H](Cc1c[nH]cn1)C(=O)N1CCC(Oc2ccc(F)cc2)CC1`, the cytotoxicity at 70.5 h was -4.52%.

In the case of `CCc1nc(CCNC(=O)NC2CCSCC2)cs1`, the cytotoxicity at 70.5 h came out at 5.18%.

With `CC(C)c1sc(Br)nc1C(=O)NCc1ccncc1`, the cytotoxicity at 70.5 h came to 23%.

On to `c1ccc(CO[C@@H]2C[C@H]3CN(c4ncccn4)CCN3C2)nc1`, for which the cytotoxicity at 70.5 h is -7.06%.

In the case of `O=C(c1ccc(-c2nc[nH]n2)cc1)N1CC[C@H](CO)[C@@H](O)C1`, the cytotoxicity at 70.5 h was -10.8%.

Regarding `Cc1cc(N2CCC(C(=O)O)(n3ccc(C(C)C)n3)CC2)nc(N)n1`, the cytotoxicity at 70.5 h was 6.37%.

Take `O=C(C1CCC1)N1C[C@@H]2CCN(c3cccnc3)C[C@@H]2C1`: the cytotoxicity at 70.5 h turned out to be 30%.

As for `Cc1csc(CNC(=O)NCC(O)c2cccc(Cl)c2)n1` (centres undefined), the cytotoxicity at 70.5 h is -11%.

Take `Cc1cc(C)c2nc(CN3C[C@H](CCO)[C@@H](N)C3)cc(O)c2c1`: the cytotoxicity at 70.5 h was -4.09%.

In the case of `COCCN1C[C@H]2CC[C@@H]1CN(C(=O)CCc1n[nH]c(C)c1C)C2`, the cytotoxicity at 70.5 h is 6.62%.

As for `c1csc(-c2nc(CN3CCCCC3Cn3cccn3)co2)c1` (centres undefined), the cytotoxicity at 70.5 h was -58%.

On to `CN(Cc1ccc(F)cc1)C(=O)CN1CCCCC1Cn1cncn1` (centres undefined), for which the cytotoxicity at 70.5 h was -3.07%.

As for `FC1(F)CCN(Cc2ccncc2)CC12CCN(c1cnccn1)C2` (centres undefined), the cytotoxicity at 70.5 h was -8.66%.

Consider `Cc1c(C2CC(=O)Nc3c2cnn3C(C)(C)C)cnn1C` (centres undefined), for which the cytotoxicity at 70.5 h was -11.8%.

With `CN1Cc2ccccc2CC2(CCN(Cc3nccn3C)CC2)C1=O`, the cytotoxicity at 70.5 h was -3.31%.

For the compound `CC(C)CNC(=O)C1=NOC2(CCN(Cc3ccoc3)C2)C1` (centres undefined), the cytotoxicity at 70.5 h was -0.398%.

For the compound `COc1ccc2cc(C(=O)NCCc3nc(C)no3)[nH]c2c1`, the cytotoxicity at 70.5 h came to 5.04%.

In the case of `Nc1nc2c(c(NC(=O)Nc3cccc(Cl)c3)n1)CCCC2`, the cytotoxicity at 70.5 h is 13.3%.

With `c1ccc(CN2CCCn3nnc(Cn4cccc4)c3C2)nc1`, the cytotoxicity at 70.5 h was -7.02%.

In the case of `Cc1cccc(CN2CCCC(O)(CNCCc3c[nH]cn3)C2=O)c1` (centres undefined), the cytotoxicity at 70.5 h was 9.08%.

As for `COCCN1CCCC2(CCN(c3nccnc3N(C)C)C2)C1=O` (centres undefined), the cytotoxicity at 70.5 h was -14.9%.

As for `CCc1ncc(-c2nccn2-c2cccc(CC(=O)O)c2)cn1`, the cytotoxicity at 70.5 h is -11.5%.

As to `c1ccc(CN2CCc3ncnc(C4CC4)c3CC2)nc1`, the cytotoxicity at 70.5 h is -1.29%.

Take `O=C(c1ccncc1)N1CC[C@@H](O)[C@@H](O)[C@H](N2CCC(F)(F)CC2)C1`: the cytotoxicity at 70.5 h was -0.846%.

Turning to `COc1ccc(C2CNCCN2C(=O)c2cccc3ncccc23)cc1` (centres undefined), the cytotoxicity at 70.5 h was -3.21%.

On to `Cc1nc2oc(C(=O)N3CCCC3)c(N)c2c2c1CCCC2`, for which the cytotoxicity at 70.5 h was -16.9%.

For `Cn1cc(CN2C[C@H]3CCC[C@@]3(COCC3CC3)C2)cn1`, the cytotoxicity at 70.5 h was -1.1%.

Consider `COc1ccccc1[S+]([O-])CC(=O)NCc1cc(F)cc(F)c1` (centres undefined), for which the cytotoxicity at 70.5 h was 2.23%.

Regarding `Cc1nc(CN2CCN(C(=O)c3sccc3C3CC3)CC2)cs1`, the cytotoxicity at 70.5 h is -13%.

As for `Cc1cnn(CC2CCCN2C(=O)c2ccc3c(c2)nnn3C)c1` (centres undefined), the cytotoxicity at 70.5 h is -6.19%.

Regarding `CNC(=O)c1cccc(CNC2CCSc3c(Cl)cccc32)c1` (centres undefined), the cytotoxicity at 70.5 h was found to be 35.4%.

In the case of `O=S(=O)(c1cccs1)N1CCCC2(COCCN(c3cccnc3)C2)C1` (centres undefined), the cytotoxicity at 70.5 h is -1.65%.

For the compound `CSc1ccc(OC(C)C(=O)Nc2cc[nH]n2)cc1` (centres undefined), the cytotoxicity at 70.5 h was -2.7%.

On to `O=c1ccc(-c2cccs2)nn1CN1CCOC(c2ccccc2)C1` (centres undefined), for which the cytotoxicity at 70.5 h was -21.3%.

On to `Cc1cc(CN2CCOC(C)(C(=O)N3CCOCC3)C2)no1` (centres undefined), for which the cytotoxicity at 70.5 h was -2.61%.

Regarding `COc1cccn(CC(=O)N2CCC3(CCNCC3)C2)c1=O`, the cytotoxicity at 70.5 h was -13.1%.

`Cc1ccc(CN(Cc2ncc[nH]2)C2CC(C)(C)NC(C)(C)C2)o1`: the cytotoxicity at 70.5 h turned out to be 9.13%.

As for `CC(C)(C)c1nc(CC(=O)Nc2cnccc2O)cs1`, the cytotoxicity at 70.5 h is -2.57%.

For `COCc1cc(N2CCOCC2)n2nccc2n1`, the cytotoxicity at 70.5 h is -3.4%.

Consider `C=C(C)COc1ccccc1C(=O)N(C)C(C)c1c(C)n[nH]c1C` (centres undefined), for which the cytotoxicity at 70.5 h is -2.31%.

As to `Cc1cccc(C)c1OCCNC(=O)NC(C)c1nncn1C` (centres undefined), the cytotoxicity at 70.5 h stood at 41.6%.

As for `Cc1ccoc1C(=O)NC1CCN(C(=O)Nc2ccccn2)CC1`, the cytotoxicity at 70.5 h was -5.66%.

With `N#Cc1nc(COc2ccc3c(c2)OCO3)oc1NC1CC1`, the cytotoxicity at 70.5 h was -28.4%.

As to `CCc1cc(NCCNc2ccncc2C)n2nc(C)c(C)c2n1`, the cytotoxicity at 70.5 h is -1.4%.

With `CCCn1ncc(C(=O)N2CCN(C3Cc4ccccc4C3)CC2)c1C`, the cytotoxicity at 70.5 h was -0.105%.

`O=C(c1nn[nH]c1Nc1ccc(Cl)cc1)N1CCCCCC1`: the cytotoxicity at 70.5 h was -10.3%.

As to `COc1ccc(CN2CC[C@H]3O[C@@H](C(=O)NCC4CC4)CC[C@H]32)cc1`, the cytotoxicity at 70.5 h was -8.24%.

For the compound `CCN(CC)C(=O)NC(C)c1ccc(Oc2cccnc2)c(F)c1` (centres undefined), the cytotoxicity at 70.5 h turned out to be 16%.

For `CC(C)(C)c1ccc(CN2C[C@H]3C[C@H](O)C[C@H]3C2)c(OCC(N)=O)c1`, the cytotoxicity at 70.5 h is -2.7%.

In the case of `N#CCSCCCN1CCN(C(=O)c2cccc(Cl)c2)CC1`, the cytotoxicity at 70.5 h came to 2.68%.

As for `N#Cc1cccnc1NCc1ccc(S(=O)(=O)NCC2CCCO2)cc1` (centres undefined), the cytotoxicity at 70.5 h came out at 14%.

For `Cn1ccnc1CN1CCN2C[C@H](Oc3ccccc3)C[C@H]2C1`, the cytotoxicity at 70.5 h stood at 11.2%.

In the case of `CCOc1ccc(Cl)cc1CNCCCn1ccnc1`, the cytotoxicity at 70.5 h was 23.2%.

Turning to `COc1cc(F)ccc1NC(=O)NCCNC(=O)OC(C)(C)C`, the cytotoxicity at 70.5 h is -14%.

For the compound `O=C1CN(C(=O)C2CN(c3ccccc3)CCO2)CCN1` (centres undefined), the cytotoxicity at 70.5 h is -5.72%.

For `CC(NC(=O)CCc1cccs1)c1nnc2n1CCC2` (centres undefined), the cytotoxicity at 70.5 h is -36.3%.

Regarding `c1ccc2nc(N3CCCC3c3nnc4n3CCCCC4)cnc2c1` (centres undefined), the cytotoxicity at 70.5 h came out at 0.321%.

On to `CN(C)CC(=O)N1CCc2ncnc(-c3ccoc3)c2CC1`, for which the cytotoxicity at 70.5 h was -0.0529%.

With `N#Cc1ccc(C(=O)N2CCC(Oc3ccc(C#N)cn3)CC2)cc1`, the cytotoxicity at 70.5 h is -3.02%.

For `CCc1cnc(NC2CCc3c(ccc(=O)n3C)C2)nc1` (centres undefined), the cytotoxicity at 70.5 h is -5.8%.

`O[C@@H]1C[C@H]2CN(CC3CCCCC3)[C@H](Cc3ccccc3)CN2C1`: the cytotoxicity at 70.5 h is 24.4%.

For the compound `COc1cccc(NC(=O)CCCc2nc(C(C)C)no2)c1`, the cytotoxicity at 70.5 h amounted to 5.69%.

As to `COCC1CN(C(=O)COc2ccccc2)Cc2cn(C)nc21` (centres undefined), the cytotoxicity at 70.5 h is -18%.

As for `CCn1cc(CN2C[C@H]3CC[C@@H]2CN(C(=O)c2ccncc2)C3)cn1`, the cytotoxicity at 70.5 h came out at 21%.

Regarding `COc1cc(CNC(=O)COC2CCCC2)ccc1O`, the cytotoxicity at 70.5 h was -4.4%.

On to `CCNC(=O)N1CCc2ccc(NC(=O)C(C)c3ccsc3)cc21` (centres undefined), for which the cytotoxicity at 70.5 h was -11.3%.

As to `O=C(NCC(O)COc1ccc(F)cc1)C1(c2ccc(F)cc2)CC1` (centres undefined), the cytotoxicity at 70.5 h was -8.65%.

Turning to `Cc1csc2ncc(-c3ccnc(N4CCCC[C@@H]4CO)n3)c(=O)n12`, the cytotoxicity at 70.5 h was determined as 20.9%.

`CS(=O)(=O)NCCC(=O)Nc1cnn(-c2ccccc2Cl)c1`: the cytotoxicity at 70.5 h is -11.9%.

Regarding `COc1cc(CN)c(OC)c2c1OCO2`, the cytotoxicity at 70.5 h was -15.1%.

As to `Cc1cc(C)n(C2CCCN(C(=O)CN(C)c3cnccn3)C2)n1` (centres undefined), the cytotoxicity at 70.5 h was -0.822%.

Consider `Cc1cnn(CCC(=O)N2CCN(c3ncccc3Cl)CC2)c1`, for which the cytotoxicity at 70.5 h is -0.781%.

On to `CN(C)C(=O)CN1CCn2cc(Cn3cccn3)nc2C1`, for which the cytotoxicity at 70.5 h was -10.4%.

With `CC(C)NC(=O)CNC(C)c1c(F)cccc1Cl` (centres undefined), the cytotoxicity at 70.5 h was -79.9%.

In the case of `CCOCCC(=O)N1CC(=O)Nc2cc(Br)ccc21`, the cytotoxicity at 70.5 h is 22%.

`CC(=O)CSc1sc2c(O)cc(=O)[nH]c2c1C(N)=O`: the cytotoxicity at 70.5 h is -12.7%.

On to `Cc1nc(SC2CCN(c3sccc3C#N)C2=O)oc1C` (centres undefined), for which the cytotoxicity at 70.5 h was -1.94%.

For `CCCc1cc(C(=O)N(Cc2cccnc2)Cc2cccnc2)[nH]n1`, the cytotoxicity at 70.5 h was -7.25%.

Turning to `O=C(O)c1ccccc1-n1cnc(CN2CCCc3ccccc32)c1`, the cytotoxicity at 70.5 h was -2.75%.

On to `O=C(Nc1ccccn1)C1=NN(c2ccccc2)C(=O)CN1`, for which the cytotoxicity at 70.5 h came to 45.9%.

In the case of `O=C(Nc1ccccc1)N1CCN(Cc2noc(C3CC3)n2)CC1`, the cytotoxicity at 70.5 h is -7.64%.

For `Nc1cc(-c2cccs2)nn(CC(=O)NCC2CCCCC2)c1=O`, the cytotoxicity at 70.5 h is -10%.

For the compound `COCc1nc(C2CCN(Cc3ncc[nH]3)CC2)no1`, the cytotoxicity at 70.5 h turned out to be 6.2%.

As for `Cc1ccc(N2CC3(CCN(c4nccs4)C3)C2)nn1`, the cytotoxicity at 70.5 h was -4.92%.

`CN1CCCN(C[C@@H]2CN(c3nc(C(N)=O)cs3)C[C@@H]2CO)CC1`: the cytotoxicity at 70.5 h is 4.88%.

Regarding `c1ccc(CO[C@@H]2CN(Cc3nccs3)[C@@H]3COC[C@@H]32)nc1`, the cytotoxicity at 70.5 h was -7.21%.

Consider `OC(CN1CC(n2cccn2)C1)c1ccc2c(c1)OCCO2` (centres undefined), for which the cytotoxicity at 70.5 h is -3.2%.

On to `CCc1cc(N(C)CCCO)n2nccc2n1`, for which the cytotoxicity at 70.5 h was -4.76%.

Consider `CCS(=O)(=O)NC1CCCN(c2ccc(F)cc2C)C1=O` (centres undefined), for which the cytotoxicity at 70.5 h was -3.11%.

The values are drawn from ChEMBL document CHEMBL3507680, “University of Dundee, Gates Library screen for HepG2 cell viability”.
